According to patent US7282504B2, “Kinase inhibitors” (Amgen Inc., priority 2000, dated 2007):
pIC50: −log10 of the molar value.

How the values were obtained:
Assay type in all cases: biochemical
[1] = target: T1, KDR-1 (Homo sapiens, UniProt P35968); experiment: Kinase inhibition, 33P transfer to plate-bound substrate: KDR-1
T1 construct: Kinases are expressed as either kinase domains or full-length constructs; made in house
Description: (§1) The inhibitor compounds described herein are screened in the following manner. Kinases suitable for use in the following protocol to determine kinase activity of the compounds described herein include, but are not limited to: Lck, Lyn, Src, Fyn, Syk, Zap-70, Itk, Tec, Btk, EGFR, ErbB2, Kdr, Flt-1, Flt-3, Tek, c-Met, InsR, and AKT.
(§2) Kinases are expressed as either kinase domains or full-length constructs fused to glutathione S-transferase (GST) or polyHistidine tagged fusion proteins in either E. coli or Baculovirus-High Five expression systems. They are purified to near homogeneity by affinity chromatography essentially as previously described (Lehr et al., 1996; Gish et al., 1995). In some instances, kinases are co-expressed or mixed with purified or partially purified regulatory polypeptides prior to measurement of activity.
(§3) Kinase activity and inhibition are measured essentially by established protocols (Braunwalder et al., 1996). Briefly, The transfer of ^33PO4 from ATP to the synthetic substrates poly(Glu, Tyr) 4:1 or poly(Arg, Ser) 3:1 attached to the bioactive surface of microtiter plates serves as the basis to evaluate enzyme activity. After an incubation period, the amount of phosphate transferred is measured by first washing the plate with 0.5% phosphoric acid, adding liquid scintillant, and then counting in a liquid scintillation detector. The IC50 is determined by the concentration of compound that causes a 50% reduction in the amount of ^33P incorporated onto the substrate bound to the plate.

[2] = target: T2, Lck-1 (Homo sapiens, UniProt P06239); experiment: Kinase inhibition, 33P transfer to plate-bound substrate: Lck-1
T2 construct: Kinases are expressed as either kinase domains or full-length constructs; made in house
T2 sequence (P06239 whole entry, the tested form may be a part): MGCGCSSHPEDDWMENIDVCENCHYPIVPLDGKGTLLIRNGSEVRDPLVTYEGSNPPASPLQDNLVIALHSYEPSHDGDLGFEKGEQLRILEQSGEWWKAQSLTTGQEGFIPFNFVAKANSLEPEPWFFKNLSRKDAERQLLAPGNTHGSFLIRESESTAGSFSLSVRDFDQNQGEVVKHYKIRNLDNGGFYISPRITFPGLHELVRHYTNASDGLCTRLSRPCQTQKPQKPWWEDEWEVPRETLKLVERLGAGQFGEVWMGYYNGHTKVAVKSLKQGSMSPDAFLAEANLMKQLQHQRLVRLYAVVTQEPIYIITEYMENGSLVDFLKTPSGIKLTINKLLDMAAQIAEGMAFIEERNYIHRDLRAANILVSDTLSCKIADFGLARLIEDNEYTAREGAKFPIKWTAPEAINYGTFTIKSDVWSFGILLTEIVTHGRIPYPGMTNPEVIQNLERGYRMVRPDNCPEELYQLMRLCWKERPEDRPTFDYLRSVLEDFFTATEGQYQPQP
Description: as §1, §2, §3

[3] = target: T3, Akt3-1 (Homo sapiens, UniProt Q9Y243); experiment: Kinase inhibition, 33P transfer to plate-bound substrate: Akt3-1
T3 construct: Kinases are expressed as either kinase domains or full-length constructs; made in house
T3 sequence (Q9Y243 whole entry, the tested form may be a part): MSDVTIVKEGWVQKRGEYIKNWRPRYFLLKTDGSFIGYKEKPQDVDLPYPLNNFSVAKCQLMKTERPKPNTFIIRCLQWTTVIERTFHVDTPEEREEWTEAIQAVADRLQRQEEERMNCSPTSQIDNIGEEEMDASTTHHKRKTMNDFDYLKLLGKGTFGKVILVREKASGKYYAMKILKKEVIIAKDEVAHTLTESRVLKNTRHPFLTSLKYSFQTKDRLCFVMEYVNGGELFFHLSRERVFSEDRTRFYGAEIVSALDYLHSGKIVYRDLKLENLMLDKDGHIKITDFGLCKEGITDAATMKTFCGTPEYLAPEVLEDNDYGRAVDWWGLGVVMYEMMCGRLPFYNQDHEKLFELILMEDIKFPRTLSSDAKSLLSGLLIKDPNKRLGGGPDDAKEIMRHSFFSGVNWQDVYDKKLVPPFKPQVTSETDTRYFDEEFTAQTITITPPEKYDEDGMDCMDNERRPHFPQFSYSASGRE
Description: as §1, §2, §3

[4] = target: T4, Tek-1 (Homo sapiens, UniProt Q02763); experiment: Kinase inhibition, 33P transfer to plate-bound substrate: Tek-1
T4 construct: Kinases are expressed as either kinase domains or full-length constructs; made in house
T4 sequence (Q02763 23-1124): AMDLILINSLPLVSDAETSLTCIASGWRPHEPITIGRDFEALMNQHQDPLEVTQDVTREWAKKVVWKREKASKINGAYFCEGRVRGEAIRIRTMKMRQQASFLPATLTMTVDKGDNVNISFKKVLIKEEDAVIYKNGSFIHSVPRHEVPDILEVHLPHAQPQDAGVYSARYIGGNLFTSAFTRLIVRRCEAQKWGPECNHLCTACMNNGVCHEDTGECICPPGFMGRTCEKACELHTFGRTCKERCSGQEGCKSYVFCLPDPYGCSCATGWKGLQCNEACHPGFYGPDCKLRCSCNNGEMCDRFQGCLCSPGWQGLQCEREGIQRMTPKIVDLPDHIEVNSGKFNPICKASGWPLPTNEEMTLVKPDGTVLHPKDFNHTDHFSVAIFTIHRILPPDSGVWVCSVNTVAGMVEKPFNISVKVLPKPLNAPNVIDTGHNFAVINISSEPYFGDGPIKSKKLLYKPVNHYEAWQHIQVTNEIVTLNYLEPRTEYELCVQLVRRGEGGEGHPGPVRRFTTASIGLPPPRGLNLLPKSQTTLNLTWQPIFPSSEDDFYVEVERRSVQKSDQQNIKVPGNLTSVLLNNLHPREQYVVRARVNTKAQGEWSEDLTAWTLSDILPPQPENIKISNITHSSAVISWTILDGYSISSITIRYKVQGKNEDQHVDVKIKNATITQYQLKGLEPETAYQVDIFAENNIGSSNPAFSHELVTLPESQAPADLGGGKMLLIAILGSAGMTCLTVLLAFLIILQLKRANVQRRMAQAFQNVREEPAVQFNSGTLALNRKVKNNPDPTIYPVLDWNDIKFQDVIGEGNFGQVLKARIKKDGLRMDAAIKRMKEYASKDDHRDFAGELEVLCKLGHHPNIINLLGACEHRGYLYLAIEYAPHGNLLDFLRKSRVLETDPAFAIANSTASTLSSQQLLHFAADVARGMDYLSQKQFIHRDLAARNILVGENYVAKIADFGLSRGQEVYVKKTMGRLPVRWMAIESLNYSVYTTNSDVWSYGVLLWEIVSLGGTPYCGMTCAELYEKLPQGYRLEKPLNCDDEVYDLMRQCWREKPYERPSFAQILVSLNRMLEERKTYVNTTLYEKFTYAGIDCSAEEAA
Description: as §1, §2, §3

[5] = target: T5, Lck-2 (Homo sapiens, UniProt P06239); experiment: Kinase inhibition, 33P transfer to plate-bound substrate: Lck-2
T5 construct: Kinases are expressed as either kinase domains or full-length constructs; made in house
T5 sequence (P06239 whole entry, the tested form may be a part): as the sequence (P06239 whole entry, the tested form may be a part) above
Description: as §1, §2, §3

[6] = target: T6, Zap-1 (Homo sapiens, UniProt P43403); experiment: Kinase inhibition, 33P transfer to plate-bound substrate: Zap-1
T6 construct: Kinases are expressed as either kinase domains or full-length constructs; made in house
T6 sequence (P43403 1-619): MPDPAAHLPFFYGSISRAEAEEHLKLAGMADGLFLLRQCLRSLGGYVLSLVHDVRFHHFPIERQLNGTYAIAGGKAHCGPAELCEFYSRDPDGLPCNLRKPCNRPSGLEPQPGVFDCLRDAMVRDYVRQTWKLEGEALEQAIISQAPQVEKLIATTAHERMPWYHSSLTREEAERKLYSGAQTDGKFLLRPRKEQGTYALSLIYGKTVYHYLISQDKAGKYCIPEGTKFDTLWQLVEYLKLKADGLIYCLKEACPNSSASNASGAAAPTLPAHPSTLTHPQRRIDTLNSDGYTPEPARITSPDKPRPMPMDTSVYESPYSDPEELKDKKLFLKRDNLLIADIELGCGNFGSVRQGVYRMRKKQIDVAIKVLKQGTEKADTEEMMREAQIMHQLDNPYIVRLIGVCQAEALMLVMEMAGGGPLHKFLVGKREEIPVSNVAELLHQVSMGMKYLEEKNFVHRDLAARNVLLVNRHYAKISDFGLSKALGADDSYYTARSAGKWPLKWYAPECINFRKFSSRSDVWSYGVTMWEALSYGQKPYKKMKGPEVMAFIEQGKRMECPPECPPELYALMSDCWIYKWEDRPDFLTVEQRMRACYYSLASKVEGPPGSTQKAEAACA
Description: as §1, §2, §3

[7] = target: T7, Itk-1 (Homo sapiens, UniProt Q08881); experiment: Kinase inhibition, 33P transfer to plate-bound substrate: Itk-1
T7 construct: Kinases are expressed as either kinase domains or full-length constructs; made in house
T7 sequence (Q08881 1-620): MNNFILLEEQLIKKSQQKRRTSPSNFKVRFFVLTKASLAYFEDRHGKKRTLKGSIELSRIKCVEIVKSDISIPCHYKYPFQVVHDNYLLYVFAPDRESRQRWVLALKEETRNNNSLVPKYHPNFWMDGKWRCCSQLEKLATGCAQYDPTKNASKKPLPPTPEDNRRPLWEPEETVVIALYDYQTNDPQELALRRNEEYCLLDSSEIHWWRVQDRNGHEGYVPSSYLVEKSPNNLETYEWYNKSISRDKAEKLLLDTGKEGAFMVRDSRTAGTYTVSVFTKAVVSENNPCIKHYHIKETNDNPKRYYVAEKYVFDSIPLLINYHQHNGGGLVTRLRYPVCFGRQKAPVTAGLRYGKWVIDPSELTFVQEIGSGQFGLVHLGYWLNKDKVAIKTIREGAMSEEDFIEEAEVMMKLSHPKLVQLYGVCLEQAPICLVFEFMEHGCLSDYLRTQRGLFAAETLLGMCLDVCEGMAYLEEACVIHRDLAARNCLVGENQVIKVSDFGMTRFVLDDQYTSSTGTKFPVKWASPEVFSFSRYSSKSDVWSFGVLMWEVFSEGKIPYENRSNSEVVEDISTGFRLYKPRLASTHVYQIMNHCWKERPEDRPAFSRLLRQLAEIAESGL
Description: as §1, §2, §3

[8] = target: T8, EGFR-1 (Homo sapiens, UniProt P00533); experiment: Kinase inhibition, 33P transfer to plate-bound substrate: EGFR-1
T8 construct: Kinases are expressed as either kinase domains or full-length constructs; made in house
T8 sequence (P00533 25-1210): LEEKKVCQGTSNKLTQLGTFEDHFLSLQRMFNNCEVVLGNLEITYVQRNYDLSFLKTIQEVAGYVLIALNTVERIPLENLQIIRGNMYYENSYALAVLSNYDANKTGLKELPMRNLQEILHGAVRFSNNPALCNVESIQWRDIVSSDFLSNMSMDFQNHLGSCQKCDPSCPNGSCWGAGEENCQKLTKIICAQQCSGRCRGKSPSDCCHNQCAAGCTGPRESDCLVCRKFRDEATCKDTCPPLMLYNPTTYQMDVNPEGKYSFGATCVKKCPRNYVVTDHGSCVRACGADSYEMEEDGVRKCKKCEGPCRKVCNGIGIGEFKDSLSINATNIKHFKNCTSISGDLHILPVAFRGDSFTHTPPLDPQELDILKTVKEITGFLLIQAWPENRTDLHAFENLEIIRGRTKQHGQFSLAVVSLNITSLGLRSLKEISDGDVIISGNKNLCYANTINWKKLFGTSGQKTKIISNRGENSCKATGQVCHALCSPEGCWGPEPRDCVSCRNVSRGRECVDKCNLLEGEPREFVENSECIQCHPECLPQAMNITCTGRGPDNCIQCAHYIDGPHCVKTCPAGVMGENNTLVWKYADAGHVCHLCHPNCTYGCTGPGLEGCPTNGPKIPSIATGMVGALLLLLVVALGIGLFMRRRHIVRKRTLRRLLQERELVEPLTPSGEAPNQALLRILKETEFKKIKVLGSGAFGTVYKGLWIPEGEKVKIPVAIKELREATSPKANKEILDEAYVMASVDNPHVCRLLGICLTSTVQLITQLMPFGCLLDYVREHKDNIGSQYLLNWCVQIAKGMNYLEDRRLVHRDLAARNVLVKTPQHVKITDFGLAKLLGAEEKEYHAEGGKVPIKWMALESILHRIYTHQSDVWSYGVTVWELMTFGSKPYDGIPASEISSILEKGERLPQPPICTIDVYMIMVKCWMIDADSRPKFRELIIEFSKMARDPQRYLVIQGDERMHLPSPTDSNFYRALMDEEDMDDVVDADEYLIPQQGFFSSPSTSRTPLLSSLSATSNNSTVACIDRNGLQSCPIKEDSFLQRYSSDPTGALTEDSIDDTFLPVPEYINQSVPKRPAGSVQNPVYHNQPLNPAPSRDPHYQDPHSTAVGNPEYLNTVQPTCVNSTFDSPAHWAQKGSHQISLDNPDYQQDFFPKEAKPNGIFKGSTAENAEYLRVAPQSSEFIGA
Description: as §1, §2, §3

[9] = target: T9, Met-1 (Homo sapiens, UniProt P08581); experiment: Kinase inhibition, 33P transfer to plate-bound substrate: Met-1
T9 construct: Kinases are expressed as either kinase domains or full-length constructs; made in house
T9 sequence (P08581 25-1390): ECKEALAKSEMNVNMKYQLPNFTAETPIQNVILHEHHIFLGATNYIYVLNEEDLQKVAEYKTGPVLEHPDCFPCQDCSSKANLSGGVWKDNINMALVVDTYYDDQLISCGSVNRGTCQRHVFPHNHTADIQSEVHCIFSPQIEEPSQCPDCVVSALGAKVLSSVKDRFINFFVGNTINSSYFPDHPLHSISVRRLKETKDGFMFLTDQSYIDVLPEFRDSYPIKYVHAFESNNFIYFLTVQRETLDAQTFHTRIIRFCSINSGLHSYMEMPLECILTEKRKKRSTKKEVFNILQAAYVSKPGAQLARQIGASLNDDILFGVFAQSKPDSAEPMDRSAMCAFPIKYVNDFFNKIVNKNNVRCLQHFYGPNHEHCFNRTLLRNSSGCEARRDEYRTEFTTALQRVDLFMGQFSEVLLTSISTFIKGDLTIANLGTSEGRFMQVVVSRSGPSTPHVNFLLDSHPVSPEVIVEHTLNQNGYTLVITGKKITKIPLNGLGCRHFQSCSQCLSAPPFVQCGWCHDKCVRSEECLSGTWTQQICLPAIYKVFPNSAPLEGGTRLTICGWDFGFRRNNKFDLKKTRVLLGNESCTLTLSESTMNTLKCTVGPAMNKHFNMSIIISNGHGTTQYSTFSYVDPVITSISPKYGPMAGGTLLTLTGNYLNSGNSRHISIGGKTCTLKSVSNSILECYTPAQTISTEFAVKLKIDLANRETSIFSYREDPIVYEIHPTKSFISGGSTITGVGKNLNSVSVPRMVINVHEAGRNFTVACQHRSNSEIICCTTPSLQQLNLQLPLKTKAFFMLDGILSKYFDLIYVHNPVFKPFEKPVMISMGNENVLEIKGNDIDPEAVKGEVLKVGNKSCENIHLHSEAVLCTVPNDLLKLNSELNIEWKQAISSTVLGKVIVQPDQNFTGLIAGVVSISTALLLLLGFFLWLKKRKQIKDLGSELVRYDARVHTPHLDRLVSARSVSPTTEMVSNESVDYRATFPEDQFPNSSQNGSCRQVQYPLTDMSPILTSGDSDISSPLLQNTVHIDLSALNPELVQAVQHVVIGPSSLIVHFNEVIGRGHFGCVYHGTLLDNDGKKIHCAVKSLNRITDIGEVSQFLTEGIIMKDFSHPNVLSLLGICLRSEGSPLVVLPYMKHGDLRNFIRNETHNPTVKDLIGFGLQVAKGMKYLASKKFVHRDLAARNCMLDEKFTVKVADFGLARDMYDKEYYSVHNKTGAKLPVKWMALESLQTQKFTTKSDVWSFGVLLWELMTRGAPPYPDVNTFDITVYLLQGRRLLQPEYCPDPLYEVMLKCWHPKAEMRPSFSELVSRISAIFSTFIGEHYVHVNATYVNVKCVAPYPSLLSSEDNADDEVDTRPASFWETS
Description: as §1, §2, §3

[10] = target: T10, ErbB2-1 (Homo sapiens, UniProt P04626); experiment: Kinase inhibition, 33P transfer to plate-bound substrate: ErbB2-1
T10 construct: Kinases are expressed as either kinase domains or full-length constructs; made in house
Description: as §1, §2, §3

[11] = target: T11, PDGFRB (Homo sapiens, UniProt P09619); experiment: Kinase inhibition, 33P transfer to plate-bound substrate: PDGFRB
T11 construct: Kinases are expressed as either kinase domains or full-length constructs; made in house
Description: as §1, §2, §3

[12] = target: T12, IGFR-1 (Homo sapiens, UniProt P08069); experiment: Kinase inhibition, 33P transfer to plate-bound substrate: IGFR-1
T12 construct: Kinases are expressed as either kinase domains or full-length constructs; made in house
Description: as §1, §2, §3

[13] = target: T13, Src-1 (Homo sapiens, UniProt P12931); experiment: Kinase inhibition, 33P transfer to plate-bound substrate: Src-1
T13 construct: Kinases are expressed as either kinase domains or full-length constructs; made in house
Description: as §1, §2, §3

[14] = target: T14, Hck-1 (Homo sapiens, UniProt P08631); experiment: Kinase inhibition, 33P transfer to plate-bound substrate: Hck-1
T14 construct: Kinases are expressed as either kinase domains or full-length constructs; made in house
Description: as §1, §2
as §3, with “The IC50 is determined by the concentration of compound that causes a 50% reduction in the amount of ^33P incorporated onto the substrate bound to the plate.” left out

[15] = target: T15, Lyn-1 (Homo sapiens, UniProt P07948); experiment: Kinase inhibition, 33P transfer to plate-bound substrate: Lyn-1
T15 construct: Kinases are expressed as either kinase domains or full-length constructs; made in house
Description: as §1, §2, §3

[16] = target: T16, Fyn-1 (Homo sapiens, UniProt P06241); experiment: Kinase inhibition, 33P transfer to plate-bound substrate: Fyn-1
T16 construct: Kinases are expressed as either kinase domains or full-length constructs; made in house
Description: as §1, §2, §3

[17] = target: T17, Flt1-1 (Homo sapiens, UniProt P17948); experiment: Kinase inhibition, 33P transfer to plate-bound substrate: Flt1-1
T17 construct: Kinases are expressed as either kinase domains or full-length constructs; made in house
Description: as §1, §2, §3

[18] = target: T18, ErbB4-1 (Homo sapiens, UniProt Q15303); experiment: Kinase inhibition, 33P transfer to plate-bound substrate: ErbB4-1
T18 construct: Kinases are expressed as either kinase domains or full-length constructs; made in house
Description: as §1, §2, §3

[19] = target: T19, FGFR1-1 (Homo sapiens, UniProt P11362); experiment: Kinase inhibition, 33P transfer to plate-bound substrate: FGFR1-1
T19 construct: Kinases are expressed as either kinase domains or full-length constructs; made in house
Description: as §1, §2, §3

SMILES | pIC50 [1] | pIC50 [2] | pIC50 [3] | pIC50 [4] | pIC50 [5] | pIC50 [6] | pIC50 [7] | pIC50 [8] | pIC50 [9] | pIC50 [10] | pIC50 [11] | pIC50 [12] | pIC50 [13] | pIC50 [14] | pIC50 [15] | pIC50 [16] | pIC50 [17] | pIC50 [18] | pIC50 [19]
COc1cc(Nc2nccc(-n3c(N)nc4ccccc43)n2)cc(OC)c1OC [Compound 11] | 5.00 to 5.30 | 5.00 to 5.30 | 5.00 to 5.30 | ≤ 5.00 | 5.30 to 5.82 | ≤ 5.00 | 5.00 to 5.30 | ≤ 5.00 | 5.00 to 5.30 | – | – | – | – | – | – | – | – | – | –
COc1cc(Nc2nccc(-n3c(=O)oc4ccccc43)n2)cc(OC)c1OC [Compound 25] | ≤ 5.00 | ≤ 5.00 | ≤ 5.00 | ≤ 5.00 | ≤ 5.00 | ≤ 5.00 | ≤ 5.00 | ≤ 5.00 | ≤ 5.00 | ≤ 5.00 | ≤ 5.00 | ≤ 5.00 | – | – | – | – | – | – | –
COc1cc(Nc2nccc(-n3ccc4ccccc43)n2)cc(OC)c1OC [Compound 31] | > 5.82 | > 5.82 | ≤ 5.00 | 5.00 to 5.30 | > 5.82 | ≤ 5.00 | 5.30 to 5.82 | ≤ 5.00 | 5.30 to 5.82 | – | > 5.82 | – | > 5.82 | ≤ 5.00 | > 5.82 | > 5.82 | > 5.82 | 5.30 to 5.82 | > 5.82
